Measured values from patent US5541217A, “4-arylcyclopenta[c]pyrrole analgesics” (Ortho Pharmaceutical Corporation, priority 1995, dated 1996).

These molecules were tested on acetylcholine-bromide induced abdominal constriction response (assay: Mouse Acetylcholine Bromide-Induced Abdominal Constriction Assay). Conditions: po, 30 min before i.p. 5.5 mg/kg acetylcholine bromide, 10 min observation.
Type: in vivo

SMILES	% Inhibition at 30 mg/kg [%]
CN1C[C@H]2CC[C@](O)(c3ccccc3)[C@H]2C1 (relative stereo) [Cp-1]	87
CN1C[C@H]2CC[C@](O)(c3ccc(F)cc3)[C@H]2C1 (relative stereo) [Cp-2]	87
CN1C[C@H]2CC[C@](O)(c3cccc(C(F)(F)F)c3)[C@H]2C1 (relative stereo) [Cp-3]	87
CN1C[C@H]2CC[C@@H](c3ccc(F)cc3)[C@H]2C1 (relative stereo) [Cp-5]	87

Same assay, conditions: sc, 30 min before i.p. 5.5 mg/kg acetylcholine bromide, 10 min observation

SMILES	% Inhibition at 30 mg/kg [%]
CN1C[C@H]2CC[C@@H](c3ccccc3)[C@H]2C1 (relative stereo) [Cp-4]	100
CN1C[C@H]2CC[C@@H](c3cccc(C(F)(F)F)c3)[C@H]2C1 (relative stereo) [Cp-6]	87
CN1C[C@H]2CC[C@H](c3ccccc3)[C@H]2C1 (relative stereo) [Cp-7]	100
